Experimental findings from publication PMC7381538, “Broad spectrum antibiotic-degrading metallo-β-lactamases are phylogenetically diverse” (Protein & Cell, 2020) are described below.

One experiment has as its target SPR-1trunc (Serratia proteamaculans, UniProt Z9GZR1QZ95). The experiment is classed as biochemical. Conditions: beta-lactam substrate and mode only in supplement.
The next experiment has as its target SER-1trunc. In kind it is biochemical. Conditions: beta-lactam substrate and mode only in supplement.

SPR-1trunc, sequence (Z9GZR1QZ95 50-298 limits assumed): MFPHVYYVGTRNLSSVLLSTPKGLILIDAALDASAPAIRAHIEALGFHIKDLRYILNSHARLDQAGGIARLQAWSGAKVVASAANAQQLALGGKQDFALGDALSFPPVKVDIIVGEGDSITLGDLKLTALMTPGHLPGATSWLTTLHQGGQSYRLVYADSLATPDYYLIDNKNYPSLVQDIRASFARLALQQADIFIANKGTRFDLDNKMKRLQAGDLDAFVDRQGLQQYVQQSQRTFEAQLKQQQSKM

`O=C(O)[C@H]1/C(=C/CO)O[C@@H]2CC(=O)N21` [CA, clavulanic acid]: the Ki on SPR-1trunc came to 201 µM; on SER-1trunc it was 290 µM.

What is called Ki is the dissociation constant of the complex between target and ligand, obtained from inhibition or displacement. A lower Ki goes with higher affinity.
